Data as given in patent US20130143955A1, “Cyclic di-GMP-II Riboswitches, Motifs, and Compounds, and Methods for Their Use” (priority 2010, published 2013).
Where “and” joins values, the source holds several entries; their conditions need not be identical. Equal entries are not always repeated.

What was measured:
[1] = system: 864 Cd Tandem RNA (c-di-GMP-II aptamer and group I ribozyme); experiment: Self-splicing assays of the tandem riboswitch-ribozyme; assay type: biochemical, Clostridium difficile 630; settings: for Rate constant, product 3′E* (alternative GTP attack product) / Rate constant, product 5′E-3′E (spliced exons): Internally 32P-labeled RNA; for Rate constant, product GTP1 (GTP attack at 5′ SS) / Rate constant, product GTP2 (alternative GTP attack site): Unlabeled RNA, [α-32P]GTP
Method: Initial ribozyme self-splicing reaction conditions were based on those previously reported for use with a group I ribozyme from Tetrahymena thermophile and consisted of incubations at 30° C. in the presence of 50 mM HEPES (pH 7.5 at 23° C.), 100 mM (NH4)2SO4, 5 mM MgCl2, and 0.1 mM GTP. At concentrations of MgCl2 above 10 mM and temperatures at 37° C. or above, the difference between the ligated exons and alternate GTP attack site products became less pronounced. A range of ligand concentrations were tested for both GTP (5 μM to 1 mM) and cyclic di-GMP ([…] to 100 μM) to determine the optimal amounts for splicing activity, based on probable biological relevance and degree of allosteric control.
Splicing assays for wild-type and mutant RNAs were carried out for 30 minutes (unless otherwise noted) under the conditions described above, with the addition of 50 μM GTP and/or 10 μM c-di-GMP when stated. Final RNA concentrations were lower than 1 μM for all reactions. Reaction mixtures containing unlabeled RNA were supplemented with 1 μCi/μL [α-^32P]GTP. Products were separated by denaturing 6% PAGE. Gels were dried and products were subsequently imaged using a PhosphorImager (Molecular Dynamics).
Aliquots from splicing reactions conducted with either 5′ or internally ^32P-labeled 864 Cd Tandem RNAs were removed at various incubation times and the reactions were terminated by the addition of stop buffer (see below). Similarly, time course experiments were conducted with unlabeled 864 Cd Tandem RNAs supplemented with ˜50 nCi/μL [α-^32P]GTP. Reactions were initiated by combining a solution containing RNA only (˜100 pM 5′ ^32P-labeled RNA, ˜1 μM internally ^32P-labeled RNA, or ˜10 nM unlabeled RNA) with a solution containing the buffer and any ligands to yield a final concentration of contents as described above. The two mixtures were briefly pre-heated at 30° C. and the reaction was initiated by the transfer of buffer/ligand solution to the RNA solution. The zero time point was removed prior to initiation of the reaction and immediately placed into an equivalent volume of stop buffer (8 M urea, 20% w/v sucrose, 0.1% SDS, 0.05% bromophenol blue, 0.05% xylene cyanol FF, 0.09 M Tris base, 0.09 M borate, 1 mM EDTA [pH 8.0]). Likewise, subsequent aliquots were removed at each time point and quenched by placement in stop buffer. Reaction products were separated as described above and dried gels were imaged using a PhosphorImager (Molecular Dynamics).
For precursor RNAs that were initially ^32P-labeled, rate constants for product formation were established by determining the yield of specific products relative to the unprocessed or misprocessed RNAs. First, an average background for each lane was calculated and subtracted from intensities of individual bands or lanes. Second, product band intensities were compared to the total intensity of their corresponding lane, which corrected for any differences due to sample loading. Third, the band intensity at time zero was subtracted from the corresponding bands of all other time points. Yields of products from assays conducted with internally ^32P-labeled RNAs were also corrected for the number of uridine nucleotides in the product RNA versus the total number of uridine nucleotides in the precursor RNA (252 nucleotides). This correction allows for direct comparison of the number of molecules present in each product band. The total fraction of RNA processed at 120 minutes is ˜40%. […] This extent of RNA misfolding, particularly in the absense of possible protein factors, is also typical of other large functional RNAs. Thus, at 120 minutes, approximately 80% of the total reactable RNA has undergone processing. The fractions of RNA processed for the internally ^32P-labeled RNA was adjusted to reflect this value of 80% at 120 minutes.
For splicing assays conducted using unlabeled precursor RNAs, determination of rate constants were conducted differently. […]

[2] = system: ompR riboswitch (c-di-GMP-II, ompR 5′ UTR); experiment: Single-round transcription termination assay; assay type: biochemical, C. difficile; settings: WT ompR construct, c-di-GMP 50 μM
Method: Single round transcription assays were conducted using a method (FIG. 7) adapted as described previously (data not shown) with the following modifications. The elongation mixture contained 50 μM UTP, and 150 μM each of ATP, GTP and CTP. Heparin was added at 0.1 mg/mL at initiation of elongation. For the reactions containing the second messenger, c-di-GMP was added to a final concentration of 50 μM.
A template DNA harboring the 5′ UTR of the ompR gene of C. difficile and its native promoter was prepared by PCR (see Table 4). The predicted intrinsic transcription termination site is 40 nucleotides shorter than the terminus of the template DNA. The ompR riboswitch is predicted to be an ‘ON’ switch based on its architecture. Therefore the full length transcript was expected to undergo decreased termination in the presence of c-di-GMP. Mutant templates M2 and M3 were constructed by PCR and confirmed by sequencing (see Table 4). A template DNA for production of a simulated intrinsic transcription termination product was generated by PCR and was used as a marker during PAGE analysis of transcription products.
Further evidence of aptamer-controlled transcription termination was observed by conducting single-round transcription assays in vitro using another C. difficile c-di-GMP-II construct from the ompR mRNA (FIG. 2C). […]

[3] = GTP + and c-di-GMP +, first 15 minutes

For `Nc1nc2c(ncn2[C@@H]2O[C@H](COP(=O)(O)OP(=O)(O)OP(=O)(O)O)[C@@H](O)[C@H]2O)c(=O)[nH]1` [GTP], the “ratio of alternative attack product (3′E*) to spliced exons (5′E-3′E)” value ([1]; 120 minutes, absence of c-di-GMP (GTP only)) was “more than 20 fold”, the “Rate constant, product 3′E* (alternative GTP attack product)” value ([1]; GTP + and c-di-GMP −) was 0.024 min⁻¹ and the “Rate constant, product 5′E-3′E (spliced exons)” value ([1]; GTP + and c-di-GMP −) was 1.1×10^−3 min^−1. The “Rate constant, product GTP1 (GTP attack at 5′ SS)” value ([1]; GTP + and c-di-GMP −) was 0.0018 min⁻¹ and the “Rate constant, product GTP2 (alternative GTP attack site)” value ([1]; GTP + and c-di-GMP −) was 0.027 min⁻¹.

With `Nc1nc2c(ncn2[C@@H]2O[C@@H]3COP(=O)(O)O[C@H]4[C@@H](O)[C@H](n5cnc6c(=O)[nH]c(N)nc65)O[C@@H]4COP(=O)(O)O[C@H]3[C@H]2O)c(=O)[nH]1` [c-di-GMP, cyclic di-GMP] the EC50 ([1]; 5′ 32P-labeled 864 Cd Tandem RNA, 120 minutes, read-out: S50, concentration of c-di-GMP at which 5′E-3′E is half-maximally processed) was ~30 nM and 30 nM, the “ratio of alternative attack product (3′E*) to spliced exons (5′E-3′E)” value ([1]; 120 minutes, c-di-GMP present) was “near equal amounts” and the “increase in initial rate constant for GTP attack at the 5′ SS” value ([1]; GTP and c-di-GMP versus only GTP, unlabeled RNA, first 15 minutes) was about 13 fold. The “Rate constant, product 3′E* (alternative GTP attack product)” value ([1]; GTP + and c-di-GMP +) was 0.018 min⁻¹, the “Rate constant, product 5′E-3′E (spliced exons)” value ([1]; GTP + and c-di-GMP +) was 1.3×10^−2 min^−1 and the “Rate constant, product GTP1 (GTP attack at 5′ SS)” value [1, 3] was 0.023 min⁻¹. The “Rate constant, product GTP2 (alternative GTP attack site)” value [1, 3] was 0.023 min⁻¹, the “increase in the production of spliced exons” value ([1]; presence versus absence of c-di-GMP, 120 minutes) was about 8 fold and the “increase in the initial rate constant for spliced product formation” value ([1]; presence versus absence of c-di-GMP, internally labeled RNA) was 12 fold. The “production of full-length RNA transcript (transcription termination control)” value [2] was “robust production of full-length RNA transcript only when c-di-GMP is added”.
